The text below walks through data of publication PMC4747190, “Flavokawain A induces deNEDDylation and Skp2 degradation leading to inhibition of tumorigenesis and cancer progression in the TRAMP transgenic mouse model” (Oncotarget, 2015).

The experiment addresses T1, NEDD8-activating enzyme (NAE), Uba3 subunit (Homo sapiens, UniProt Q8TBC4).
T1 construct: His-APP-BP1, His-Uba3 (kit enzymes); with APPBP1 (NAE1); Ubc12 and NEDD8 present in the assay
Briefly: in vitro NEDD8 conjugation assay with purified E1 (APPBP1/Uba3), Ubc12 and NEDD8; non-reducing western blot of Ubc12-NEDD8. In kind it is biochemical.

T1 sequence (Q8TBC4 2-463): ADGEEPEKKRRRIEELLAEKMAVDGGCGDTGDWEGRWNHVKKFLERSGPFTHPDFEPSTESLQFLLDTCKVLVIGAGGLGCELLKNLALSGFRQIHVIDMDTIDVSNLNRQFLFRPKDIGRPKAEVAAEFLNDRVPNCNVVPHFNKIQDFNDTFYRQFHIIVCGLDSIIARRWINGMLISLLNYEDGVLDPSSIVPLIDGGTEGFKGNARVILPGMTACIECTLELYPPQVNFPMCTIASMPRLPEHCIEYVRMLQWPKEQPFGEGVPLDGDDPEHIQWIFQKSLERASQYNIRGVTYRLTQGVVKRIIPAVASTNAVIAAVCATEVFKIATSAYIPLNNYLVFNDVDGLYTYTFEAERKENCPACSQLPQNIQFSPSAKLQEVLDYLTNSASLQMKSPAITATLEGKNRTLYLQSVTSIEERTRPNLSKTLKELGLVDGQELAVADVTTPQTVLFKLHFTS
T1 sequence (Q13564 2-534 partner): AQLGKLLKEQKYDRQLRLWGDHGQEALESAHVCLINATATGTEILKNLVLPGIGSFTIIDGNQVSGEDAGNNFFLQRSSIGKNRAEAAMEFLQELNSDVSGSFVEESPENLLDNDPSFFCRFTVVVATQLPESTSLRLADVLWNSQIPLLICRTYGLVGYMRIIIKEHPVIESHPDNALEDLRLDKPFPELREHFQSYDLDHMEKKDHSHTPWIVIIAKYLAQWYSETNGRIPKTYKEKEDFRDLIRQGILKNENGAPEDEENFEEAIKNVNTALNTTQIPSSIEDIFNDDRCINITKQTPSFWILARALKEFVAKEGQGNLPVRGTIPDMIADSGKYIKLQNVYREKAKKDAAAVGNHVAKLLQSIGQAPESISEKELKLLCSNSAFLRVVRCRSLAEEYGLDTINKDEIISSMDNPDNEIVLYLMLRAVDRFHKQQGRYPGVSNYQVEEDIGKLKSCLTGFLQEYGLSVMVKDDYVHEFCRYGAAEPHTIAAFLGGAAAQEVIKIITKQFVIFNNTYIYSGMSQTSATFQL
T1 sequence (P61081 whole entry partner): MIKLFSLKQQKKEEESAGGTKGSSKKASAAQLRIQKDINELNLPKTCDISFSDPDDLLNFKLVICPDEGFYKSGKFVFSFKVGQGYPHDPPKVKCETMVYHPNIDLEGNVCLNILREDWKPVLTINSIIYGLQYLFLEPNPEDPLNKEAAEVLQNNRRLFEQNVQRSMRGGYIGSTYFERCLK
T1 sequence (Q15843 1-76 partner): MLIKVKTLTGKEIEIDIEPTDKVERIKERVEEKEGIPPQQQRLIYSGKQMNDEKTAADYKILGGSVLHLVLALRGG

Usually IC50 stands for the concentration at which inhibition is half-maximal. `COc1ccc(/C=C/C(=O)c2c(O)cc(OC)cc2OC)cc1` [FKA, flavokawain A] yielded an IC50 of approximately 5 µM.
